Test results from ChEMBL document CHEMBL1136528, “Novel pyrrolyllactone and pyrrolyllactam indolinones as potent cyclin-dependent kinase 2 inhibitors” (Bioorg Med Chem Lett, 2003).

Key:
[1] = biological target: Cyclin-dependent kinase 2 (Homo sapiens, UniProt P24941); assay: Inhibitory activity against Cyclin-dependent kinase 2
[2] = biological target: Proto-oncogene tyrosine-protein kinase Src (Homo sapiens, UniProt P12931); assay: Inhibitory activity was tested against Src protein tyrosine kinase
Proto-oncogene tyrosine-protein kinase Src, sequence (P12931 2-536 limits assumed): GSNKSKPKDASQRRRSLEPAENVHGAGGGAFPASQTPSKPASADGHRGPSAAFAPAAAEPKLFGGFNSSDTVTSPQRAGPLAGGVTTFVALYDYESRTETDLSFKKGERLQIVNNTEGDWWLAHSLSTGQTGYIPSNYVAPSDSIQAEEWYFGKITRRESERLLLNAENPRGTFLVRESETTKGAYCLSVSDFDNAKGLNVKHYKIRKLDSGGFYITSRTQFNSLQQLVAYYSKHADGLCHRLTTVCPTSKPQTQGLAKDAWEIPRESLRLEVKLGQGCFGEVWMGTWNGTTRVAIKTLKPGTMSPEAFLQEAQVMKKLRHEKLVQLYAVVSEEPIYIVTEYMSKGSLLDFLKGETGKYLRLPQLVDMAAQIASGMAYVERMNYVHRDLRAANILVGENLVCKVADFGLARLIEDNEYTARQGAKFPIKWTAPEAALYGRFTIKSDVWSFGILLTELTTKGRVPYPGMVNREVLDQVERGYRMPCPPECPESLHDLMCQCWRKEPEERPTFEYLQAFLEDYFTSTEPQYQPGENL

[3] = biological target: Vascular endothelial growth factor receptor 2 (Homo sapiens, UniProt P35968); assay: Inhibitory activity was tested against FLK kinase
Vascular endothelial growth factor receptor 2, sequence (P35968 whole entry): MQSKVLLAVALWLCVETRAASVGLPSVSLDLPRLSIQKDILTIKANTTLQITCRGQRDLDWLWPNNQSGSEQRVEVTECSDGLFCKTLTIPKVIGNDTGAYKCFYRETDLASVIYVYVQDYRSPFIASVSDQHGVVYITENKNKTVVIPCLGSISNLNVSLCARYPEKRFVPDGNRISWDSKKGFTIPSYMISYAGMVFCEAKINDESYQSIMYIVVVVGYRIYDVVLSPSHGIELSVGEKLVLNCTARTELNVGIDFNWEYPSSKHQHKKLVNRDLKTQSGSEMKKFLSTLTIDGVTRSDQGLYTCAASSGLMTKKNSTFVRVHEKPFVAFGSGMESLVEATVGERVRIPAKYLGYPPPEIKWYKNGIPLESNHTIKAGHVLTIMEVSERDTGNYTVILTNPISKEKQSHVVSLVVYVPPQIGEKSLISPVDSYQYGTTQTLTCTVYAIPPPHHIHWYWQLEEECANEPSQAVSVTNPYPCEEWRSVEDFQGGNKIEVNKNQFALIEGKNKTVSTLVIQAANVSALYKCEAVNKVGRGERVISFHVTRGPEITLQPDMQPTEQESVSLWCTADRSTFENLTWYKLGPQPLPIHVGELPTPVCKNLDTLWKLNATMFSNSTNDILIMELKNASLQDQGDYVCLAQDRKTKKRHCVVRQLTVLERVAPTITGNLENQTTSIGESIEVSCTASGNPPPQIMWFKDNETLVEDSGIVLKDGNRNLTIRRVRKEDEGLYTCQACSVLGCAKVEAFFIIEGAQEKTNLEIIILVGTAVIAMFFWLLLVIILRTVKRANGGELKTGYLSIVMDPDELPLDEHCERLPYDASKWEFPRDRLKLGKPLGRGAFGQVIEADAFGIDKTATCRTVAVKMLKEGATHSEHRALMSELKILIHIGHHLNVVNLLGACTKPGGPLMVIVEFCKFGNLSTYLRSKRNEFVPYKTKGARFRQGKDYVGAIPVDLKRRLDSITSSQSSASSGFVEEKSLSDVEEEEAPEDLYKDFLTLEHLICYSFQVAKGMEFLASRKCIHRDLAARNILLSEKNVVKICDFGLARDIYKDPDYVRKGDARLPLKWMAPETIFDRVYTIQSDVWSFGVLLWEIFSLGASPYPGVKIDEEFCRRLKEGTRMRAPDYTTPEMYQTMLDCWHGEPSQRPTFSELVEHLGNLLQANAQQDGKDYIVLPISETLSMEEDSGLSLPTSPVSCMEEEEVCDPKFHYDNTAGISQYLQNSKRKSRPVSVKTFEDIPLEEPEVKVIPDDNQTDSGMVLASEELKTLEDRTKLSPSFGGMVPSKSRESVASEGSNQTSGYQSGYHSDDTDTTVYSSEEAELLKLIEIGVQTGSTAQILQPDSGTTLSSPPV

[4] = biological target: Platelet-derived growth factor receptor beta (Homo sapiens, UniProt P09619); assay: Inhibitory activity was tested against Platelet-derived growth factor receptor beta
Platelet-derived growth factor receptor beta, sequence (P09619 whole entry): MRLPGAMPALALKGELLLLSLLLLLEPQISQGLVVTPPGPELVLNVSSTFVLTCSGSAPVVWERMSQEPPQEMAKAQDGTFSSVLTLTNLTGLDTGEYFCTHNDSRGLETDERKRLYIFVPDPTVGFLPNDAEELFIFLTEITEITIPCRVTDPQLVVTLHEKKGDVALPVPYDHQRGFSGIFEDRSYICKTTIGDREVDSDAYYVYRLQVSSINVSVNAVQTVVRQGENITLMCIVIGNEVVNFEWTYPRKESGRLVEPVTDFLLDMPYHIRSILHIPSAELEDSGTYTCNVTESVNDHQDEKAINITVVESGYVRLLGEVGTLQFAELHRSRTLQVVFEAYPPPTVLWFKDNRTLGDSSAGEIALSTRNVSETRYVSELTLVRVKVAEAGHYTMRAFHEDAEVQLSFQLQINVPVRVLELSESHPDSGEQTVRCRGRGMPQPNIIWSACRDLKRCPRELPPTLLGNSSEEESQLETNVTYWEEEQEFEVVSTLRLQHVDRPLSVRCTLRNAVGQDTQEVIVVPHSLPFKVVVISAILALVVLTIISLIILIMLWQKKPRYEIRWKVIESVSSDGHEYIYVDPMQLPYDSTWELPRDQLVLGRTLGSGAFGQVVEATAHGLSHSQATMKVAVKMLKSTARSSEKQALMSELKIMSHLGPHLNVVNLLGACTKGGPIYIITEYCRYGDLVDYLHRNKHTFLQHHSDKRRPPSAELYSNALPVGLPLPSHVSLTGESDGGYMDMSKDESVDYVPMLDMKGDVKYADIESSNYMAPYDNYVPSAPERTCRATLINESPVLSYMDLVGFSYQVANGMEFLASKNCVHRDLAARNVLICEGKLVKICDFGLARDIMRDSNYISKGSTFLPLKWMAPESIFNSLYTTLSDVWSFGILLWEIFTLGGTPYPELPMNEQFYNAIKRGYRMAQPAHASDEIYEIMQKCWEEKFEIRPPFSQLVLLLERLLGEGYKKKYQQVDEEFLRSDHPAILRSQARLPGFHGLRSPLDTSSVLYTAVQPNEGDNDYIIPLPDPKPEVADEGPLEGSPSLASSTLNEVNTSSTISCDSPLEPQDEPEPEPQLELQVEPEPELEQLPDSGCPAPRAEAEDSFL

IC50 [1] [nM] | IC50 [2] [nM] | IC50 [3] [nM] | IC50 [4] [nM] | Compound
49 | – | – | – | O=C1Nc2cccc(C3CCNCC3)c2/C1=C/c1[nH]cc2c1CCNC2=O
340 | – | – | – | O=C1Nc2cccc(CCO)c2/C1=C/c1[nH]cc2c1CCNC2=O
270 | > 20000 | > 20000 | > 20000 | Cc1cccc2c1/C(=C/c1[nH]cc3c1CCOC3=O)C(=O)N2
82 | > 20000 | 10000 | > 20000 | O=C1Nc2ccc(F)cc2/C1=C/c1[nH]cc2c1CCOC2=O
30 | > 20000 | 1200 | > 20000 | O=C1Nc2cccc(CCO)c2/C1=C/c1[nH]cc2c1CCOC2=O
64 | > 20000 | 6700 | > 20000 | CC(C)NS(=O)(=O)c1ccc2c(c1)/C(=C/c1[nH]cc3c1CCOC3=O)C(=O)N2
12 | 13000 | 6600 | > 20000 | NS(=O)(=O)c1ccc2c(c1)/C(=C/c1[nH]cc3c1CCOC3=O)C(=O)N2
4 | > 20000 | 6600 | > 20000 | CNS(=O)(=O)c1ccc2c(c1)/C(=C/c1[nH]cc3c1CCOC3=O)C(=O)N2
68 | – | – | – | O=C1Nc2ccc(C(=O)O)cc2/C1=C/c1[nH]cc2c1CCNC2=O
5700 | – | – | – | O=C1Nc2cc(-c3ccccc3)ccc2/C1=C/c1[nH]cc2c1CCNC2=O
250 | – | – | – | COc1ccc2c(c1)/C(=C/c1[nH]cc3c1CCNC3=O)C(=O)N2
> 10000 | 8400 | 2000 | 1100 | O=C1Nc2cc(-c3ccccc3)ccc2/C1=C/c1[nH]cc2c1CCOC2=O
40 | > 20000 | > 20000 | > 20000 | COc1ccc2c(c1)/C(=C/c1[nH]cc3c1CCOC3=O)C(=O)N2
1500 | > 20000 | > 20000 | 1400 | COc1ccc2c(c1)NC(=O)/C2=C\c1[nH]cc2c1CCOC2=O
68 | – | – | – | CN(C)S(=O)(=O)c1ccc2c(c1)/C(=C/c1[nH]cc3c1CCNC3=O)C(=O)N2
9 | 1100 | 490 | 1100 | O=C1Nc2cccc(C3CCNCC3)c2/C1=C/c1[nH]cc2c1CCOC2=O
300 | – | – | – | O=C1Nc2ccc(F)cc2/C1=C/c1[nH]cc2c1CCNC2=O
9 | – | – | – | CNS(=O)(=O)c1ccc2c(c1)/C(=C/c1[nH]cc3c1CCNC3=O)C(=O)N2
88 | > 20000 | > 20000 | 2100 | O=C1Nc2ccc(Cl)cc2/C1=C/c1[nH]cc2c1CCOC2=O
4 | > 20000 | 6200 | > 20000 | O=C1Nc2ccc(C(=O)O)cc2/C1=C/c1[nH]cc2c1CCOC2=O
33 | > 20000 | > 20000 | > 20000 | CN(C)S(=O)(=O)c1ccc2c(c1)/C(=C/c1[nH]cc3c1CCOC3=O)C(=O)N2
530 | – | – | – | O=C1Nc2ccc(Br)cc2/C1=C/c1[nH]cc2c1CCNC2=O
190 | > 20000 | 11000 | 18000 | O=C1Nc2ccc(Br)cc2/C1=C/c1[nH]cc2c1CCOC2=O
